Measured values reported in patent US5532229A, “Topical administration of vitamin D to mammals” (priority 1994, dated 1996).

Assays:
[1] = Experiment 2: uptake of [14C]-vitamin D3 tracer into serum and conversion to [14C]-25(OH)D3; assay type: in vivo, Male Wistar rats
Protocol: One dose of [carbon-14]-labelled vitamin D3 was given at the time of the last of 14 daily doses of nonradioactive vitamin D3. The graphs show the uptake and metabolism of one [^14 C]-vitamin D3 dose during the course of gastric or dermal supplementation with vitamin D3. The tracer was given in addition to the usual, 8 μg/day vitamin D3 dose, and by the same route. Radioactivity in serum was isolated by chromatography to measure that which elutes as vitamin D3, or as […], Each point is the mean of results from six rats;
Uptake of radioactive vitamin D3 from skin or gut during the longer term treatment with vitamin D3 at 20 nmol/day.
The previous experiment 1 involved only one acute dose of a minute, tracer amount of vitamin D3. It remained possible that dermal application could not deliver a larger, more nutritionally relevant amount of vitamin D3. This experiment 2 looked at what happens when vitamin D3 is given during the course of daily treatment with a moderate amount of vitamin D3.
After 30 days, the rats were divided into three groups of 6: one group continued with no supplement, one group was given daily vitamin D3 supplement, 8 μg/day either by gastric tube, the third received the supplement by application to the skin in 50 μL ethanol. Vitamin D3 was given for 3 wk. The day before the rats were killed, the vitamin D3 dose was supplemented with [^14 C]-labelled vitamin D3, 915,000 cpm per rat. Blood was obtained from the tail of each rat at 3 h, 9 h, and by heart puncture when the rats were anesthetized for killing, 24 h after giving the tracer. The blood was extracted and chromatographed to distinguish [^14 C]-vitamin D3 from the [^14 C]-25(OH)D3generated from it. Radioactivity was also measured in the liver, kidney, and adipose tissue. Serum nonradioactive 25(OH)D3 was also measured.

[2] = Experiment 5: [14C]-vitamin D3 left on skin at application site; assay type: in vivo, Male Wistar rats; conditions: for % [14C]-D3 Left on Skin: 2 weeks, 1440 min
Protocol: This experiment was to compare potential toxic effects of vitamin D3 given for a 2 wk period, at the near-fatal dose of 800 μg per day by gastric tube, or by dermal administration at 800 μg/day or 2600 μg/day. Another goal was find evidence of saturable dermal uptake by including [^14 C]-vitamin D3 to monitor its removal from the skin at the high doses of vitamin D3.
Male Wistar rats, 190±10 g were obtained and divided into three groups of 7. They were treated for 2 weeks with one the following: 2000 nmol/day of vitamin D3 by gastric tube; 800 μg/day applied to a 2×2 cm patch of skin on the back; 2600 μg/day skin. The day before killing, 66,000 counts per minute of [^14 C]-vitamin D3 was applied along with the dermal dose to permit a determination of uptake from the skin. The rats were killed after two weeks for analysis of serum, urine, kidney, and aorta. The calcium in urine and acid-treated homogenate of kidney was measured by chemical colorimetry; aorta calcium was measured by treating with nitric acid measuring calcium by atomic absorption.

[3] = application to skin of rats; cited from earlier work
[4] = oral, in chylomicrons; cited from earlier work

C=C1CC[C@H](O)[14CH2]/C1=C/C=C1\CCC[C@]2(C)[C@@H]([C@H](C)CCCC(C)C)CC[C@@H]12 [[^14 C]-vitamin D3]
time until [14C]-25(OH)D3 evident in serum ([1]; dermal administration, after dosing): ≥ 24 h | [14C]-25(OH)D3 detection in serum ([1]; oral dosing): detected in every sample | % [14C]-D3 Left on Skin ([2]; dermal 800 μg/day): 47.8% | % [14C]-D3 Left on Skin ([2]; dermal 2600 μg/day): 65.6% | proportion of administered vitamin D3 left in the skin, effect of dose ([2]; dermal 800 vs 2600 μg/day): only marginally affected by the dose

C[C@H](CCCC(C)(C)O)[C@H]1CC[C@H]2C3=CC=C4CC(O)CC(O)[C@]4(C)[C@H]3CC[C@]12C (stereo partly shown) [1,25-dihydroxylated-7-dehydrocholesterol]
intestinal calcium transport [3]: increased | serum calcium [3]: increased

C=C1CC[C@H](O)C/C1=C/C=C1\CCC[C@]2(C)[C@@H]([C@H](C)/C=C/[C@H](C)C(C)C)CC[C@@H]12 [vitamin D2]
activation into 25-hydroxyvitamin D2 [4]: partially activated into 25-hydroxyvitamin D2 relatively quickly

C=C1/C(=C\C=C2/CCC[C@]3(C)[C@@H]([C@H](C)CCCC(C)(C)O)CC[C@@H]23)C[C@@H](O)C[C@@H]1O [1,25(OH)2 D3]
intestinal calcium transport [3]: increased | serum calcium [3]: increased
